The values that follow come from patent publication US20100311714A1, “1H-IMIDAZO[4,5-c]QUINOLINONE COMPOUNDS” (priority 2009, published 2010).

This test relates to PKB Ser473 phosphorylation in Rat1-myr-HA-p110 delta cells. The test can be described thus: Reverse protein array, PKB Ser473 phosphorylation in Rat1-myr-HA-p110 delta cells. The test is classed as cell-based. The settings on record: Rattus norvegicus, 0.5 h, 30 minutes compound incubation, read-out: p-PKB/IC50_delta.

For the compound `COc1ccc(-c2ccc3ncc4c(c3c2)n(-c2cccnc2OC)c(=O)n4C)cn1` [Example 1.1, 1-(2-Methoxy-pyridin-3-yl)-8-(6-methoxy-pyridin-3-yl)-3-methyl-1,3-dihydro-imidazo[4,5-c]quinolin-2-one], the IC50 is 53.3 nM. The same measure for `COc1ncccc1-n1c(=O)n(C)c2cnc3ccc(-c4cnc(N)c(C(F)(F)F)c4)cc3c21` [Example 1.3, 8-(6-Amino-5-trifluoromethyl-pyridin-3-yl)-1-(2-methoxy-pyridin-3-yl)-3-methyl-1,3-dihydro-imidazo[4,5-c]quinolin-2-one]: 15.5 nM. With `CNc1ccc(-c2ccc3ncc4c(c3c2)n(-c2cccnc2OC)c(=O)n4C)cn1` [Example 1.4, 1-(2-Methoxy-pyridin-3-yl)-3-methyl-8-(6-methylamino-pyridin-3-yl)-1,3-dihydro-imidazo[4,5-c]quinolin-2-one], the IC50 came out at 29.4 nM. For `CCOc1ccc(-c2ccc3ncc4c(c3c2)n(-c2cccnc2OC)c(=O)n4C)cn1` [Example 1.5, 8-(6-Ethoxy-pyridin-3-yl)-1-(2-methoxy-pyridin-3-yl)-3-methyl-1,3-dihydro-imidazo[4,5-c]quinolin-2-one], the IC50 worked out at 59.6 nM. For `COc1ncccc1-n1c(=O)n(C)c2cnc3ccc(-c4cnc5c(ccn5C)c4)cc3c21` [Example 1.7, 1-(2-Methoxy-pyridin-3-yl)-3-methyl-8-(1-methyl-1H-pyrrolo[2,3-b]pyridin-5-yl)-1,3-dihydro-imidazo[4,5-c]quinolin-2-one], the IC50 was 72 nM. In the case of `COc1ncccc1-n1c(=O)n(C)c2cnc3ccc(-c4ccc(F)nc4)cc3c21` [Example 1.8, 8-(6-Fluoro-pyridin-3-yl)-1-(2-methoxy-pyridin-3-yl)-3-methyl-1,3-dihydro-imidazo[4,5-c]quinolin-2-one] it was 612 nM.

Consider `COc1ncccc1-n1c(=O)n(C)c2cnc3ccc(-c4cnc(N(C)C)nc4)cc3c21` [Example 1.9, 8-(2-Dimethylamino-pyrimidin-5-yl)-1-(2-methoxy-pyridin-3-yl)-3-methyl-1,3-dihydro-imidazo[4,5-c]quinolin-2-one], for which the IC50 was 83.9 nM. On to `CCOc1ccc(-c2ccc3ncc4c(c3c2)n(-c2cccnc2C)c(=O)n4C)cn1` [Example 2.1, 8-(6-Ethoxy-pyridin-3-yl)-3-methyl-1-(2-methyl-pyridin-3-yl)-1,3-dihydro-imidazo[4,5-c]quinolin-2-one], for which the IC50 stood at 96 nM. The same measure for `CNc1ncc(-c2ccc3ncc4c(c3c2)n(-c2cccnc2C)c(=O)n4C)cn1` [Example 2.2, 3-Methyl-8-(2-methylamino-pyrimidin-5-yl)-1-(2-methyl-pyridin-3-yl)-1,3-dihydro-imidazo[4,5-c]quinolin-2-one]: 20.5 nM.

As for `Cc1ncccc1-n1c(=O)n(C)c2cnc3ccc(-c4cnc5c(ccn5C)c4)cc3c21` [Example 2.14, 3-Methyl-1-(2-methyl-pyridin-3-yl)-8-(1-methyl-1H-pyrrolo[2,3-b]pyridin-5-yl)-1,3-dihydro-imidazo[4,5-c]quinolin-2-one], the IC50 came to 61.7 nM. As to `CCOc1cc(-c2ccc3ncc4c(c3c2)n(-c2cccnc2C)c(=O)n4C)cnc1C` [Example 2.22, 8-(5-Ethoxy-6-methyl-pyridin-3-yl)-3-methyl-1-(2-methyl-pyridin-3-yl)-1,3-dihydro-imidazo[4,5-c]quinolin-2-one], the IC50 was found to be 75.7 nM. In the case of `COc1ccc(-c2ccc3ncc4c(c3c2)n(-c2cccnc2)c(=O)n4C)cc1OC` [Example 5.2, 8-(3,4-Dimethoxy-phenyl)-3-methyl-1-pyridin-3-yl-1,3-dihydro-imidazo[4,5-c]quinolin-2-one] it was 74.3 nM. The same measure for `COc1ccc(-c2ccc3ncc4c(c3c2)n(-c2cccnc2)c(=O)n4C)cn1` [Example 5.4, 8-(6-Methoxy-pyridin-3-yl)-3-methyl-1-pyridin-3-yl-1,3-dihydro-imidazo[4,5-c]quinolin-2-one]: 223 nM; for `CCNc1cc(-c2ccc3ncc4c(c3c2)n(-c2ccc(F)nc2C)c(=O)n4C)cnc1CO` [Example 7.9, 8-(5-Ethylamino-6-hydroxymethyl-pyridin-3-yl)-1-(6-fluoro-2-methyl-pyridin-3-yl)-3-methyl-1,3-dihydro-imidazo[4,5-c]quinolin-2-one]: 41.5 nM; for `CNc1cc(-c2ccc3ncc4c(c3c2)n(-c2ccc(F)nc2C)c(=O)n4C)cnc1CO` [Example 7.11, 1-(6-Fluoro-2-methyl-pyridin-3-yl)-8-(6-hydroxymethyl-5-methylamino-pyridin-3-yl)-3-methyl-1,3-dihydro-imidazo[4,5-c]quinolin-2-one]: 17.1 nM. The same measure for `CNc1ncc(-c2ccc3ncc4c(c3c2)n(-c2ccc(F)nc2C)c(=O)n4C)cc1F` [Example 7.12, 8-(5-Fluoro-6-methylamino-pyridin-3-yl)-1-(6-fluoro-2-methyl-pyridin-3-yl)-3-methyl-1,3-dihydro-imidazo[4,5-c]quinolin-2-one]: 97.8 nM; for `CNc1ncc(-c2ccc3ncc4c(c3c2)n(-c2ccc(F)nc2C)c(=O)n4C)cc1C(F)(F)F` [Example 7.13, 1-(6-Fluoro-2-methyl-pyridin-3-yl)-3-methyl-8-(6-methylamino-5-trifluoromethyl-pyridin-3-yl)-1,3-dihydro-imidazo[4,5-c]quinolin-2-one]: 37.9 nM.

Turning to `CNC(=O)c1cc(-c2ccc3ncc4c(c3c2)n(-c2ccc(F)nc2C)c(=O)n4C)cnc1N` [Example 7.14, 2-Amino-5-[1-(6-fluoro-2-methyl-pyridin-3-yl)-3-methyl-2-oxo-2,3-dihydro-1H-imidazo[4,5-c]quinolin-8-yl]-N-methyl-nicotinamide], the IC50 was 140 nM. With `CCOCc1cc(-c2ccc3ncc4c(c3c2)n(-c2ccc(F)nc2C)c(=O)n4C)cnc1N` [Example 7.15, 8-(6-Amino-5-ethoxymethyl-pyridin-3-yl)-1-(6-fluoro-2-methyl-pyridin-3-yl)-3-methyl-1,3-dihydro-imidazo[4,5-c]quinolin-2-one], the IC50 turned out to be 172 nM. In the case of `Cc1nc(F)ccc1-n1c(=O)n(C)c2cnc3ccc(-c4cncc(N)c4)cc3c21` [Example 7.16, 8-(5-Amino-pyridin-3-yl)-1-(6-fluoro-2-methyl-pyridin-3-yl)-3-methyl-1,3-dihydro-imidazo[4,5-c]quinolin-2-one], the IC50 came out at 78.5 nM. The same measure for `Cc1nc(F)ccc1-n1c(=O)n(C)c2cnc3ccc(-c4cnc(N)c(CO)c4)cc3c21` [Example 7.17, 8-(6-Amino-5-hydroxymethyl-pyridin-3-yl)-1-(6-fluoro-2-methyl-pyridin-3-yl)-3-methyl-1,3-dihydro-imidazo[4,5-c]quinolin-2-one]: 119 nM; for `COc1ccc(-n2c(=O)n(C)c3cnc4ccc(-c5cnc(N)c(C(F)(F)F)c5)cc4c32)c(OC)n1` [Example 8.1, 8-(6-Amino-5-trifluoromethyl-pyridin-3-yl)-1-(2,6-dimethoxy-pyridin-3-yl)-3-methyl-1,3-dihydro-imidazo[4,5-c]quinolin-2-one]: 10.7 nM; for `COCCOc1cc(-c2ccc3ncc4c(c3c2)n(-c2ccc(OC)nc2OC)c(=O)n4C)cnc1C` [Example 8.9, 1-(2,6-Dimethoxy-pyridin-3-yl)-8-[5-(2-methoxy-ethoxy)-6-methyl-pyridin-3-yl]-3-methyl-1,3-dihydro-imidazo[4,5-c]quinolin-2-one]: 74.9 nM. The same measure for `COc1ccc(-n2c(=O)n(C)c3cnc4ccc(-c5ccc6nccn6c5)cc4c32)c(OC)n1` [Example 8.10, 1-(2,6-Dimethoxy-pyridin-3-yl)-8-imidazo[1,2-a]pyridin-6-yl-3-methyl-1,3-dihydro-imidazo[4,5-c]quinolin-2-one]: 412 nM; for `COCc1ncc(-c2ccc3ncc4c(c3c2)n(-c2ccc(OC)nc2OC)c(=O)n4C)cc1OC` [Example 8.12, 1-(2,6-Dimethoxy-pyridin-3-yl)-8-(5-methoxy-6-methoxymethyl-pyridin-3-yl)-3-methyl-1,3-dihydro-imidazo[4,5-c]quinolin-2-one]: 134 nM; for `COc1nc(N2CCNCC2)ccc1-n1c(=O)n(C)c2cnc3ccc(-c4cnc(N(C)C)nc4)cc3c21` [Example 9.4, 8-(2-Dimethylamino-pyrimidin-5-yl)-1-(2-methoxy-6-piperazin-1-yl-pyridin-3-yl)-3-methyl-1,3-dihydro-imidazo[4,5-c]quinolin-2-one]: 40.2 nM. In the case of `CCNc1cc(-c2ccc3ncc4c(c3c2)n(-c2ccc(OC)nc2C)c(=O)n4C)cnc1C` [Example 11.7, 8-(5-Ethylamino-6-methyl-pyridin-3-yl)-1-(6-methoxy-2-methyl-pyridin-3-yl)-3-methyl-1,3-dihydro-imidazo[4,5-c]quinolin-2-one] it was 8.3 nM. Regarding `COc1ccc(-n2c(=O)n(C)c3cnc4ccc(-c5cnc(CO)c(OC)c5)cc4c32)c(C)n1` [Example 11.8, 8-(6-Hydroxymethyl-5-methoxy-pyridin-3-yl)-1-(6-methoxy-2-methyl-pyridin-3-yl)-3-methyl-1,3-dihydro-imidazo[4,5-c]quinolin-2-one], the IC50 is 114 nM. With `CCN(C)c1ccc(-n2c(=O)n(C)c3cnc4ccc(-c5ccc(NC)nc5)cc4c32)c(C)n1` [Example 12.1, 1-[6-(Ethyl-methyl-amino)-2-methyl-pyridin-3-yl]-3-methyl-8-(6-methylamino-pyridin-3-yl)-1,3-dihydro-imidazo[4,5-c]quinolin-2-one], the IC50 was 45.7 nM. In the case of `CCNc1cc(-c2ccc3ncc4c(c3c2)n(-c2ccc(N(C)CC)nc2C)c(=O)n4C)cnc1C` [Example 12.2, 8-(5-Ethylamino-6-methyl-pyridin-3-yl)-1-[6-(ethyl-methyl-amino)-2-methyl-pyridin-3-yl]-3-methyl-1,3-dihydro-imidazo[4,5-c]quinolin-2-one] it was < 4.57 nM; in that of `CCOc1ccc(-c2ccc3ncc4c(c3c2)n(-c2ccc(OCCOC)nc2C)c(=O)n4C)cn1` [Example 13.1, 8-(6-Ethoxy-pyridin-3-yl)-1-[6-(2-methoxy-ethoxy)-2-methyl-pyridin-3-yl]-3-methyl-1,3-dihydro-imidazo[4,5-c]quinolin-2-one], 113 nM.
